103 compounds from PubChem BioAssay AID1996 can be followed below.

Each structure is given as a SMILES string. Converted amounts (≈) assume the structure as drawn.

A word on the kinetic solubility: it is solubility judged after dilution from a stock solution rather than from solid.

For this series the following is noted: buffer; pH 7.4; 200.0 µM.
`CCNc1ccc(S(=O)(=O)NCCN(C)C)cc1[N+](=O)[O-]` registered a solubility (kinetic) of 42.4 µg/mL (≈ 134 µM). To `O=C(COC(=O)C1CC1)NCc1ccccc1` belongs greater than 35 µg/mL; to `CCC(=O)NNc1nc2c(F)cccc2s1`, greater than 35.9 µg/mL. To `N#Cc1ccc(-c2nc3ccc(Br)cc3c(=O)n2O)cc1` belongs 18.1 µg/mL (≈ 52.9 µM). To `CCOC(=O)CSc1nc(C(C)(C)C)nc2ccccc12` belongs 0.7 µg/mL (≈ 2.3 µM); to `O=C(Nc1cc(Cl)ccn1)C1(c2ccccc2)CC1(Cl)Cl` (stereo not drawn), less than 0.4 µg/mL. In turn, `CSc1nsc(SCC(=O)N2CCCCC2)n1` came in with a solubility (kinetic) greater than 43.4 µg/mL. To `COc1ccc(C2CC(=O)C(C=NCC(C)C)=C(O)C2)cc1` (stereo not drawn) belongs 40.6 µg/mL (≈ 135 µM); to `O=C(NCCc1ccccc1)c1cccc(Br)c1`, 10 µg/mL (≈ 32.9 µM); to `O=C(Nc1ccc(F)cc1)c1ccc2[nH]c(=O)c(=O)[nH]c2c1`, greater than 44.9 µg/mL.

The compound `COc1ccccc1NC(=O)/C(C#N)=C/c1ccncc1` came in with a solubility (kinetic) of 36 µg/mL (≈ 129 µM). Regarding `Cc1ccc(-c2nc(CNC(=O)c3cc(C)on3)cs2)cc1`, the solubility (kinetic) amounted to 35.4 µg/mL (≈ 113 µM). `CC(=O)N(Nc1ccccc1)c1ccccc1`: the solubility (kinetic) is greater than 33.9 µg/mL.

Consider `COc1cc(CNCc2ccc3c(c2)OCO3)c([N+](=O)[O-])cc1OC`, for which the kinetic solubility was determined as 46.6 µg/mL (≈ 135 µM). For the compound `O=[N+]([O-])c1cccc(CSc2ncnc3ccccc23)c1`, the solubility (kinetic) was determined as 2 µg/mL (≈ 6.73 µM).

With `CN1CCN(c2c(F)cc3c(=O)c(C(=O)[O-])cn4c3c2OCN4C)CC1`, the solubility (kinetic) was greater than 54.2 µg/mL. Compound `COc1ccc(CNc2nccs2)cc1OC` registered a solubility (kinetic) greater than 37.5 µg/mL.

The compound `O=S(=O)(Cc1ccccc1)Nc1ccccc1` showed a solubility (kinetic) greater than 37.1 µg/mL. To `CC(=O)CCc1ccc(OCCCOc2cccc3cccnc23)cc1` belongs 25.5 µg/mL (≈ 73 µM); to `Cc1ccc(C(C)C)cc1OCC(=O)NC1CCCCCCC1`, less than 0.7 µg/mL; to `c1ccc(-c2nc(NCc3cccs3)c3ccccc3n2)cc1`, 0.7 µg/mL (≈ 2.21 µM).

As to `CCN(CC)CCOC(=O)C(c1ccccc1)c1ccccc1.Cl`, the kinetic solubility is greater than 52.2 µg/mL. For the compound `COc1cccc(C2C([N+](=O)[O-])=C(N)Oc3cc(C)oc(=O)c32)c1` (stereo not drawn), the solubility (kinetic) is greater than 49.5 µg/mL. `COc1cccc(C(=O)NCC(=O)N/N=C/c2cccnc2)c1` came in with a solubility (kinetic) greater than 46.8 µg/mL. As for `COc1ccc(OC)c(NC(=O)CCN2CCN(C)CC2)c1.Cl`, the solubility (kinetic) amounted to 44.2 µg/mL. Turning to `CC(=O)Nc1ccc(C(=O)NCC2CCCCC2)cc1`, the solubility (kinetic) is 36.4 µg/mL (≈ 133 µM).

On to `COc1cccc(CN(C)C(=O)c2ccc(N3CCCC3)c([N+](=O)[O-])c2)c1`, for which the solubility (kinetic) turned out to be 21.9 µg/mL (≈ 59.3 µM). To `COC(=O)C(Cc1ccccc1)N1CCS(=O)(=O)CC1` (stereo not drawn) belongs greater than 44.6 µg/mL. `O=C(CCNC(=O)c1ccco1)NCCc1c[nH]c2ccccc12`: the kinetic solubility turned out to be 33.1 µg/mL (≈ 102 µM). As to `COc1ccc(-n2cc([N+](=O)[O-])c(=O)c3ccc(Cl)cc32)cc1`, the solubility (kinetic) stood at 0.7 µg/mL (≈ 2.12 µM). Compound `CCOC(=O)c1cccc(NC(=O)CC2Oc3ccccc3NC2=O)c1` (stereo not drawn) gave a kinetic solubility of 1.8 µg/mL (≈ 5.08 µM). Compared with the last compound, the solubility kinetic is about 2.6-fold higher.

In turn, `CN1CCN(C(=O)/C(=C\c2cccs2)NC(=O)c2ccccc2)CC1` showed a solubility (kinetic) greater than 53.3 µg/mL. To `CCc1nc2ccccc2c(C(=O)OCC(=O)NC2CC2)c1C` belongs greater than 46.9 µg/mL; to `O=C(O)c1cc(N2CCOCC2)nc2ccccc12`, 37.9 µg/mL (≈ 147 µM). To `COc1ccc(Nc2nc(C)nc3c2oc2ccccc23)cc1` belongs 1.7 µg/mL (≈ 5.57 µM); to `CC(C)S(=O)(=O)c1csc(NC(=O)Nc2cc(Cl)ccc2Cl)c1Cl`, less than 0.5 µg/mL.

Consider `Nc1ccc(C(=O)O)cc1[N+](=O)[O-]`, for which the solubility (kinetic) was greater than 27.3 µg/mL. The compound `O=C(COc1ccccc1C(=O)O)NC1CCCc2ccccc21` (stereo not drawn) registered a solubility (kinetic) of 13.8 µg/mL (≈ 42.4 µM).

Take `Cc1ccc(OCC(=O)NCC2CCCO2)c(C)c1` (stereo not drawn): the solubility (kinetic) is greater than 39.5 µg/mL. The compound `CCOc1nc(Nc2ccc(OC)cc2)nc(N2CCOCC2)n1` yielded a kinetic solubility of 4.8 µg/mL (≈ 14.5 µM).

Take `O=C(/C=C/c1ccco1)c1cccnc1`: the solubility (kinetic) was 23.8 µg/mL (≈ 119 µM). To `O=c1ccc(-c2nc3ccccc3n2Cc2ccc(Cl)cc2)c[nH]1` belongs 38.7 µg/mL (≈ 115 µM); to `Cc1cccc(-n2c(C)cc(C(=S)N3CCOCC3)c2C)c1C`, 28.2 µg/mL (≈ 85.8 µM); to `O=C1NC2(CCCC2)C(=O)N1Cc1cc(=O)n2ccsc2n1`, greater than 47.8 µg/mL.

`O=C1NC(=Nc2ccccc2)S/C1=C\c1ccccc1` yielded a solubility (kinetic) of 0.8 µg/mL (≈ 2.85 µM). `CN(C)CCn1ccc(O)c(Cc2ccc(Cl)cc2)c1=O`: the kinetic solubility came out at 44.8 µg/mL (≈ 146 µM). This solubility kinetic lies about 56-fold higher than the previous one. On to `Cc1ccc(S(=O)(=O)N2CCOCC2)cc1NC(=O)c1cc2ccccc2oc1=O`, for which the kinetic solubility amounted to 1.1 µg/mL (≈ 2.57 µM). With `Cc1cc2oc(=O)cc(CN3CCCCC3C)c2cc1Cl` (stereo not drawn), the solubility (kinetic) worked out at 4.5 µg/mL (≈ 14.7 µM). To `CSCCC(NS(=O)(=O)c1ccccc1F)C(=O)NCC(c1ccco1)N(C)C` (stereo not drawn) belongs greater than 66.5 µg/mL; to `COc1cc(C(=O)NCCNC(=O)c2ccc(C)nc2)cc(OC)c1OC`, 52.6 µg/mL (≈ 141 µM); to `O=S(=O)(NC1=NCCCCC1)c1ccc(F)cc1`, greater than 40.5 µg/mL.

For `COc1cccc(CNC(=O)COC(=O)C23CC4CC(CC(Cl)(C4)C2)C3)c1`, the solubility (kinetic) is 21.1 µg/mL (≈ 53.8 µM). `CSC1=NCCN1C(=O)c1ccc(C)cc1` yielded a solubility (kinetic) greater than 35.1 µg/mL. To `C=CCn1c(SCC(=O)Nc2cccc(S(N)(=O)=O)c2)nc2sc(C)c(C)c2c1=O` belongs 3 µg/mL (≈ 6.46 µM); to `O=C(CSc1nncn1-c1ccccc1)NC1CCCC1`, greater than 45.4 µg/mL; to `CCCCn1c(N)c(N(CCOC)C(=O)c2ccc3c(c2)C(=O)N(c2ccccc2Cl)C3=O)c(=O)[nH]c1=O`, greater than 81 µg/mL. Turning to `Cc1cc(C)cc(N=Cc2c(O)c3ccccc3oc2=O)c1`, the solubility (kinetic) is less than 0.6 µg/mL. Take `CCOc1ccc(NC(=O)COC(=O)c2cc(C)oc2C)cc1`: the solubility (kinetic) turned out to be 4.2 µg/mL (≈ 13.2 µM). To `C=C(C)COc1ccc(-c2ncncc2-c2ccccc2OC)c(O)c1` belongs 5.5 µg/mL (≈ 15.8 µM); to `N#C/C(=C\c1c[nH]c2ccccc12)C(=O)NC1CCCC1`, 1.8 µg/mL (≈ 6.44 µM); to `COc1ccccc1NC(=O)NCCCCc1ccccc1`, 5.3 µg/mL (≈ 17.8 µM). `CCn1c(=O)c([N+](=O)[O-])c(N2CCSCC2)c2ccccc21` displayed a kinetic solubility of 14.8 µg/mL (≈ 46.3 µM). To `O=C(COc1ccccc1)N1CCN=C1SCc1ccc(F)cc1` belongs 6.4 µg/mL (≈ 18.6 µM); to `CCc1ccccc1NC(=O)CC1SCCNC1=O` (stereo not drawn), greater than 41.8 µg/mL; to `Cc1ccc(-c2c(C)n([O-])c3c([n+]2=O)CCCC3)cc1`, greater than 40.5 µg/mL. To `COc1ccc(NC(=O)COC(=O)CCc2ccc(S(=O)(=O)N3CCOCC3)cc2)cc1Cl` belongs 19.6 µg/mL (≈ 39.4 µM). To `CC(=O)Oc1ccccc1-c1nc(/C=C/c2ccccc2)no1` belongs less than 0.3 µg/mL; to `CS(=O)(=O)N1CCN(c2ccc([N+](=O)[O-])c3cccnc23)CC1`, 9.7 µg/mL (≈ 28.8 µM). In turn, `Cl.O=C(Nc1ncc([N+](=O)[O-])s1)c1cccs1` yielded a kinetic solubility greater than 43.8 µg/mL. To `CCCOc1ccc(N2C(=O)CC(NCC(=O)OCC)C2=O)cc1` (stereo not drawn) belongs greater than 50.2 µg/mL; to `Cc1cnc(=O)[nH]c1SCc1ccc(C(F)(F)F)cc1`, 5.1 µg/mL (≈ 17 µM); to `CCc1sc(C(=O)N2CCN(C(=O)c3ccccc3)CC2)cc1C`, greater than 51.4 µg/mL. To `Cc1cc(C(=O)OCC(=O)Nc2ccc(F)cc2)c(C)n1C1CC1` belongs 6.2 µg/mL (≈ 18.8 µM); to `Cc1ccsc1C(=O)OCC(=O)Nc1nnc(-c2ccccc2)o1`, greater than 51.5 µg/mL.

For the compound `O=C(NC1CCCCCCC1)c1cc([N+](=O)[O-])ccc1Cl`, the kinetic solubility turned out to be 8.5 µg/mL (≈ 27.4 µM).

As to `O=C(NCc1ccc2c(c1)OCO2)c1cc(Cl)ccc1Cl`, the kinetic solubility was determined as 1.7 µg/mL (≈ 5.24 µM). Against the preceding compound, the solubility kinetic is about 5-fold lower.

`[O-][n+]1ccc(OCc2ccccc2)cc1` came in with a kinetic solubility greater than 30.2 µg/mL.

`Cc1ccsc1C(=O)N(C)C1CCS(=O)(=O)C1` (stereo not drawn) came in with a solubility (kinetic) greater than 41 µg/mL. To `CN(Cc1c(F)cccc1Cl)C(=O)CNC(=O)c1cccs1` belongs greater than 51.1 µg/mL; to `CNc1nc(C)c([N+](=O)[O-])c(Nc2ccc(OC)cc2)n1`, 0.5 µg/mL (≈ 1.73 µM); to `Oc1ccc(Cl)cc1CNc1nccs1`, 13.9 µg/mL (≈ 57.7 µM). To `COc1ccc(CCNC(=O)CN2C(=O)NC(c3ccccc3)(c3ccccc3)C2=O)cc1` belongs 10 µg/mL (≈ 22.5 µM). To `COc1ccc(Br)cc1CN1CCCCCC1` belongs 37.4 µg/mL (≈ 125 µM); to `Cc1cccc(C(=O)NCC(C)NC(=O)c2cccc(C)c2)c1` (stereo not drawn), 23.7 µg/mL (≈ 76.4 µM). Compound `O=C(O)c1cccc2c3c([nH]c12)CCCC3` yielded a solubility (kinetic) greater than 32.3 µg/mL. Compound `COc1ccc(S(=O)(=O)N2CCOCC2)cc1NC(=O)COC(=O)c1ccc([N+](=O)[O-])s1` gave a solubility (kinetic) of 14 µg/mL (≈ 28.8 µM). To `Cc1cc(C)nc(SCc2cn3ccccc3n2)n1` belongs greater than 40.6 µg/mL. In the case of `CN1CCN(Cc2cn(C)c3ccccc23)CC1CCO` (stereo not drawn), the kinetic solubility was 32.3 µg/mL (≈ 112 µM).

In turn, `O=C1CCCC(O)=C1N=Nc1ccc(C(=O)O)cc1` gave a solubility (kinetic) greater than 39 µg/mL.

Consider `CCOc1ncccc1C(=O)NCC(c1ccco1)N1CCCCC1` (stereo not drawn), for which the solubility (kinetic) was greater than 51.5 µg/mL. Compound `CCCc1nnc(SCC(=O)N(CC)CC)n1CC1CCCO1` (stereo not drawn) showed a solubility (kinetic) greater than 51.1 µg/mL. Take `O=[N+]([O-])/C=C1/CCCCCN1`: the kinetic solubility is greater than 23.4 µg/mL. To `CC(=O)c1sc(C(C)(C)C)cc1NC(=O)/C=C/C(=O)O` belongs 40 µg/mL (≈ 135 µM); to `Cc1cc(OCCCn2ccnc2)cc(C(C)C)c1`, 23.3 µg/mL (≈ 90.2 µM). Consider `CC(C)n1c(NCc2ccc(Cl)cc2)nc2ccccc21`, for which the solubility (kinetic) is 0.7 µg/mL (≈ 2.33 µM).

Compound `Cc1ccsc1C(=O)NCC(=O)OCc1ccccc1` returned a kinetic solubility greater than 43.4 µg/mL. Regarding `Cc1ccc(C(=O)Nc2cccnc2Cl)cc1Cl`, the kinetic solubility was 32.9 µg/mL (≈ 117 µM). To `CN(c1ccccc1)c1nc(N)c([N+](=O)[O-])c(NC2CCCCC2)n1` belongs less than 0.1 µg/mL; to `OC1=C(O)c2nc3cc(F)ccc3nc21`, greater than 30.6 µg/mL; to `CC(Cl)C(=O)N1c2ccccc2CCc2ccccc21` (stereo not drawn), 41.8 µg/mL (≈ 146 µM). Regarding `COP(=O)(NS(=O)(=O)c1ccccc1)OC`, the solubility (kinetic) amounted to 33.9 µg/mL (≈ 128 µM). The solubility kinetic values of the last two compounds are within 1.5-fold of each other. To `Cc1cc2[nH]c(=O)c(=O)[nH]c2cc1S(=O)(=O)NCc1ccccc1` belongs greater than 51.8 µg/mL; to `CCCC(=O)N1CCN(c2nc3ccc(CC)cc3s2)CC1`, 13.5 µg/mL (≈ 42.5 µM).
